Assays:
[1] = target: T1, Potassium/sodium hyperpolarization-activated cyclic nucleotide-gated channel 4 (Homo sapiens, UniProt Q9Y3Q4); assay: Inhibition of human HCN4 heterologously expressed in HEK-293 cells after 30 mins by VIPR assay; format: cell-based, HEK293
T1 sequence (Q9Y3Q4 whole entry): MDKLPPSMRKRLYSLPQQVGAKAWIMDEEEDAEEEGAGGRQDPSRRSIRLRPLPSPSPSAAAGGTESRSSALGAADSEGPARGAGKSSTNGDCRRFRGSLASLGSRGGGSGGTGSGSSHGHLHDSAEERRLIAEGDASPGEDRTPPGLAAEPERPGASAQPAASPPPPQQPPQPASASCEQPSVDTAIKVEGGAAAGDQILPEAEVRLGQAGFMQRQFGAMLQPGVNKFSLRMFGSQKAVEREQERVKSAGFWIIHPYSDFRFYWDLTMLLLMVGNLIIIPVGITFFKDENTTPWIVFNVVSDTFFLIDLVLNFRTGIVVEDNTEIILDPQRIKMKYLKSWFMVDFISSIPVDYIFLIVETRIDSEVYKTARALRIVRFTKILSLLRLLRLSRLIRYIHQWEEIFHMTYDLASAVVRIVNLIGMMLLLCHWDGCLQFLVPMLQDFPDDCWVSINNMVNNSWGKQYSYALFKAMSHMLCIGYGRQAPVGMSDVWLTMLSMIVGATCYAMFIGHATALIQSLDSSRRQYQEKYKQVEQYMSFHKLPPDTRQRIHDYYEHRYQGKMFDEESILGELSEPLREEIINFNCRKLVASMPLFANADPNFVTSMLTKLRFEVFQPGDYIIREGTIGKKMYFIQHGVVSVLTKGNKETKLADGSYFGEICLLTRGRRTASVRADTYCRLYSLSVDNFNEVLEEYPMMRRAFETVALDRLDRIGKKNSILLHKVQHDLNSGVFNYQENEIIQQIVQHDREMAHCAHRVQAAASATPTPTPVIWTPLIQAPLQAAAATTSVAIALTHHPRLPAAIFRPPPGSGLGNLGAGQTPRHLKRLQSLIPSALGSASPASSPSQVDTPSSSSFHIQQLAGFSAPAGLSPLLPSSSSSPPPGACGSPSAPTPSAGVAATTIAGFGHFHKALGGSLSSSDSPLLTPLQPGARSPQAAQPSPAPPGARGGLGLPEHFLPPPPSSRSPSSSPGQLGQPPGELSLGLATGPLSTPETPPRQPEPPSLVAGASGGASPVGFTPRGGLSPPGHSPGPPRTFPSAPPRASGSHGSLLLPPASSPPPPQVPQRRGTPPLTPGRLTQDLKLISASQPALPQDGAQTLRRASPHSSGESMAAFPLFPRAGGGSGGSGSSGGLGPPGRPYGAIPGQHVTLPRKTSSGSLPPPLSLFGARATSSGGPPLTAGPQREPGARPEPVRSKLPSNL

Mus musculus = species: Mus musculus; assay: Toxicity in C57BL/6 mouse assessed as induction of bradycardia after 50 mins by ECG study; format: organism-based; conditions: in vivo

Work on CCOc1ccccc1C(=O)NCC1(N2CCNCC2)CCCCC1 yielded an IC50 [1] of 3.98 µM and an ED20 (Mus musculus) of 25 mg/kg.

Source: ChEMBL document CHEMBL1821572, “Discovery of a novel series of selective HCN1 blockers” (Bioorg Med Chem Lett, 2011)
